Test results taken from patent US9932324B2, “Substituted benzimidazolium compounds useful in the treatment of respiratory diseases” (Boehringer Ingelheim International GmbH, priority 2015, dated 2018).

Experiments:
[1] = target: T1, ENaC (Epithelial Sodium Channel) in mouse kidney M-1 cells (Mus musculus, UniProt Q61180+Q9WU38+Q9WU39); assay: Ussing Chamber assay (short circuit current, amiloride sensitive I_SC); type: cell-based; conditions: apical administration, 37° C.
T1 construct: Mouse kidney M-1 cells were cultivated in DMEM containing 5% FCS and 5 μM dexamethasone; endogenous in cells; host or cells: mouse kidney M-1 cells
T1 sequence (Q61180 1-699): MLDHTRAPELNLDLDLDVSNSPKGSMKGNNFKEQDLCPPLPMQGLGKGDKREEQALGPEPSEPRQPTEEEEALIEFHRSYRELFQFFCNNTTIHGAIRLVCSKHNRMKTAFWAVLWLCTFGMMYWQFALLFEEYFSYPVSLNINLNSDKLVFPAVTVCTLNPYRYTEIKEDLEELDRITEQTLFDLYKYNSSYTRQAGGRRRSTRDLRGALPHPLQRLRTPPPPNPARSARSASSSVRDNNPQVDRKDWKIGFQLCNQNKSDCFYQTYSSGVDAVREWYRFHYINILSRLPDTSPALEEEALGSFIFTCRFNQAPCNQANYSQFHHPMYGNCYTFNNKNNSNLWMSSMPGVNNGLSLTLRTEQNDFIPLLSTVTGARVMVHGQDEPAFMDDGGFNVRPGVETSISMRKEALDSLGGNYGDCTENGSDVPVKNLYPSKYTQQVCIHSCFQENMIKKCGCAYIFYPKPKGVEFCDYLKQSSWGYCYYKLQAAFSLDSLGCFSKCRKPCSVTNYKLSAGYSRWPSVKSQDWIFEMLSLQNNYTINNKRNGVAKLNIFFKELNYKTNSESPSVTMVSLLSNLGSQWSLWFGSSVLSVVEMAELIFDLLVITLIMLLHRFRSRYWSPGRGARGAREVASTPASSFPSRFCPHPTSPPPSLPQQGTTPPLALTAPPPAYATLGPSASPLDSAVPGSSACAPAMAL
T1 sequence (Q9WU38 1-638): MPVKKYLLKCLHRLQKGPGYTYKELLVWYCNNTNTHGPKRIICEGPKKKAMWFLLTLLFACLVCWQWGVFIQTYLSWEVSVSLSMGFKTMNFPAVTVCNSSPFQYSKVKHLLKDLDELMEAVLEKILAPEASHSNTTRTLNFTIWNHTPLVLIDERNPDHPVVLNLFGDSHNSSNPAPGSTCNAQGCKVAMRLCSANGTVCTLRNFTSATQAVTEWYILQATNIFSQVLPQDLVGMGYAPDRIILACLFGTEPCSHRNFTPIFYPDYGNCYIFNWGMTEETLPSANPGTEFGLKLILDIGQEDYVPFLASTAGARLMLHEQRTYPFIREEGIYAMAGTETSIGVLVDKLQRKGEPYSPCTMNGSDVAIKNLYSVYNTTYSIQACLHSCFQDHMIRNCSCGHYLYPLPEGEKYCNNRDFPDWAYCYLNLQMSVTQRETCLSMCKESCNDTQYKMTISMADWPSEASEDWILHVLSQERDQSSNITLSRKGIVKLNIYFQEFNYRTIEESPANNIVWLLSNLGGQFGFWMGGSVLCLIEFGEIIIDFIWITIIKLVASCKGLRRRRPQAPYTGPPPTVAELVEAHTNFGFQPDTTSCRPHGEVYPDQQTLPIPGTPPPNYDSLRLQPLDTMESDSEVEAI
T1 sequence (Q9WU39 1-655): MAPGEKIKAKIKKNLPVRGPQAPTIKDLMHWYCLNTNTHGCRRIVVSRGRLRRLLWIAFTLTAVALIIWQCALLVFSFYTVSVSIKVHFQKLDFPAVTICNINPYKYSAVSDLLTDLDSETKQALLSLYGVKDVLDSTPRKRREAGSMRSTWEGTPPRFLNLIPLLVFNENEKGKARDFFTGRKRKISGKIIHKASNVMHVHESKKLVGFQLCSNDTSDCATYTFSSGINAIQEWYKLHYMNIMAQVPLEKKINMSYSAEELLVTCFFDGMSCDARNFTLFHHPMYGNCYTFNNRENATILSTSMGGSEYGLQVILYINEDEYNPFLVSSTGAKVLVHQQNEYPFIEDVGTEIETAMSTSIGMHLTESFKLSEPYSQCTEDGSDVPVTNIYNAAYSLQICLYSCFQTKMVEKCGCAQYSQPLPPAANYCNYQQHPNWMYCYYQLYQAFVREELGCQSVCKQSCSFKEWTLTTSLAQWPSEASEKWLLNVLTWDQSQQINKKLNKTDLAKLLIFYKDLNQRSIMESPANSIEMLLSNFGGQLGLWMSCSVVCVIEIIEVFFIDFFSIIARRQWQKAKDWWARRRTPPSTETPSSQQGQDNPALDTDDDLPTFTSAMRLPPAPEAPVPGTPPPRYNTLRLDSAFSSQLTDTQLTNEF
Protocol: The IC50 values of the example compounds given above were determined in the Ussing Chamber assay.
Ussing Chamber: Mouse kidney M-1 cells were cultivated in DMEM containing 5% FCS and 5 μM dexamethasone for 10 to 12 days on polyester transwell filters. Filters were inserted into a teflon-coated well-plate which fit into the ussing chamber system. Prior to measurement the medium of M-1 cells was replaced with Caco-2 transport buffer (Invitrogen, Germany). During measurements, the Ussing chamber temperature was kept at 37° C. Short circuit currents (I_sc) were measured in the voltage-clamp mode with the software package Lab View for data acquisition and analysis. The transepithelial electrical resistance (TEER) was determined by the application of voltage steps of ±5 mV every 5 sec. Compounds were administered at a final concentration of 3 μM or at increasing concentrations (1-3-10 μM) to the apical solution. At the end of each experiment the amiloride sensitive I_SC was measured by adding 3 μM amiloride to the apical compartment. Results are expressed as inhibition in percent of the amiloride effect or as IC50.

[2] = Permeability in CALU-3 cells; type: in vitro ADME; conditions: human, CALU-3 monolayers, pH 7.4, 37° C., 10 μM compound; for Papp A→B at 90 min, 10 μM: apical-to-basal; for Papp B→A at 90 min, 10 μM: basal-to-apical
Protocol: Permeability in CALU-3 Cells:
Permeability measurements across polarized, confluent CALU-3 cell monolayers grown on permeable filter supports are used to provide information on the potential of a compound to pass the lung epithelium. Apparent permeability coefficients (Papp) of the compounds across the CALU-3 cell monolayers are measured (pH 7.4, 37° C.) in apical-to-basal (AB) and basal-to-apical (BA) transport direction.
CALU-3 cells (1-2×10^5 cells/1 cm^2 area) are seeded on filter inserts (Costar transwell polycarbonate filters, 0.4 μm pore size) and cultured (for 10-12 days DMEM) until tight monolayers are formed. Compounds of interest are dissolved in appropriate solvent (DMSO, 10 mM stock solution). Stock solutions are diluted with HTP-4 buffer (128.13 mM NaCl, 5.36 mM KCl, 1 mM MgSO4, 1.8 mM CaCl2, 4.17 mM NaHCO3, 1.19 mM Na2HPO4 x 7H2O, 0.41 mM NaH2PO4xH2O, 15 mM HEPES, 20 mM glucose, 0.25% BSA, pH 7.4) to prepare the transport solutions (10 μM compound, final DMSO <=0.5%). The transport solution (TL) is applied to the apical or basolateral donor side for measuring A-B or B-A permeability (3 filter replicates), respectively. The receiver side contains the same buffer as the donor side. After 30 min of accommodation, samples are collected at the start t0=0 min and at the end of the experiment tn=90 min from the donor and at 0, 30, 60, and 90 min also from the receiver chamber. Volume removed is […] by HTP-4 buffer. The compound concentration in the samples is measured by HPLC-MS/MS or scintillation counting. The permeability coefficient (Papp) and efflux ratio are calculated according to: Papp [cm/s]=(concentration receiver [nM]*volume receiver [mL]/time interval [sec])*(1/filter area)*(1/donor concentration [nM]).

Structure (SMILES) | IC50 [1] | Papp A→B at 90 min, 10 μM [2] | Papp B→A at 90 min, 10 μM [2]
CC[n+]1c(CNC(=O)c2nc(Cl)c(N)nc2N)n(C[C@@H]2CCCO2)c2cccc(OCC(=O)N3C[C@H](O)[C@@H](O)C3)c21 [Example 1.01] | 36 nM | – | –
CC[n+]1c(CNC(=O)c2nc(Cl)c(N)nc2N)n(C[C@@H]2CCCO2)c2cccc(OCC(=O)N(C)Cc3nc(C)ccc3[O-])c21 [Example 1.03] | 31 nM | 0.3 ×10⁻⁶ cm/s | 0.5 ×10⁻⁶ cm/s
CC[n+]1c(CNC(=O)c2nc(Cl)c(C)nc2N)n(C[C@@H]2CCCO2)c2cccc(OCC(=O)NC3CCN(C(=O)OC(C)(C)C)CC3)c21 [Example 1.07] | 2 nM | – | –
CC[n+]1c(CNC(=O)c2nc(Br)c(N)nc2N)n(C[C@@H]2CCCO2)c2cccc(OCC(=O)N3C[C@H](O)[C@@H](O)C3)c21.O=C([O-])C(F)(F)F [Example 2.01] | 24 nM | 0.2 ×10⁻⁶ cm/s | 0.2 ×10⁻⁶ cm/s
CCn1c(CNC(=O)c2nc(Cl)c(N)nc2N)[n+](CC)c2c(C(=O)N(C)Cc3nc(C)ccc3O)cccc21 [Example 3.01] | 2 nM | – | –
CCn1c(CNC(=O)c2nc(Cl)c(N)nc2N)[n+](CC)c2c(C(=O)NC3CCN(C(=O)OC(C)(C)C)CC3)cccc21 [Example 3.02] | 3 nM | – | –
CCn1c(CNC(=O)c2nc(Cl)c(N)nc2N)[n+](CC)c2c(C(=O)NCCCNC(=O)OC(C)(C)C)cccc21 [Example 3.03] | 5 nM | – | –
CCn1c(CNC(=O)c2nc(Cl)c(N)nc2N)[n+](CC)c2c(C(=O)N3CCN(C(=O)OC(C)(C)C)CC3)cccc21 [Example 3.04] | 3 nM | – | –
CCn1c(CNC(=O)c2nc(Cl)c(N)nc2N)[n+](CC)c2c(C(=O)NCCN(C)C)cccc21.[Cl-] [Example 3.05] | 6 nM | 0.04 ×10⁻⁶ cm/s | 0.06 ×10⁻⁶ cm/s

Now from value to compound:

IC50 [1] | Papp A→B at 90 min, 10 μM [2] | Papp B→A at 90 min, 10 μM [2] | Structure (SMILES)
1 nM | 0.3 ×10⁻⁶ cm/s | 0.3 ×10⁻⁶ cm/s | CC[n+]1c(CNC(=O)c2nc(Cl)c(N)nc2N)n(C[C@@H]2CCCO2)c2cccc(OCC(=O)NC3CCNCC3)c21.O=C(O)C(F)(F)F.O=C([O-])C(F)(F)F [Example 4.01]
3 nM | 0.2 ×10⁻⁶ cm/s | 0.1 ×10⁻⁶ cm/s | CCn1c(CNC(=O)c2nc(Cl)c(N)nc2N)[n+](CC)c2c(C(=O)N3CCNCC3)cccc21.[Cl-] [Example 4.02]
5 nM | 0.08 ×10⁻⁶ cm/s | 0.1 ×10⁻⁶ cm/s | CCn1c(CNC(=O)c2nc(Cl)c(N)nc2N)[n+](CC)c2c(C(=O)NC3CCNCC3)cccc21.[Cl-] [Example 4.03]
16 nM | – | – | CC[n+]1c(CNC(=O)c2nc(Cl)c(N)nc2N)n(CCOCCO)c2cccc(OC(CO)CO)c21 [Example 5.01]
5 nM | 0.1 ×10⁻⁶ cm/s | 0.09 ×10⁻⁶ cm/s | CCn1c(CNC(=O)c2nc(Cl)c(N)nc2N)[n+](CC)c2c(C(=O)NCCCN)cccc21.Cl.[Cl-] [Example 6.01]
11 nM | – | – | CC[n+]1c(CNC(=O)c2nc(Cl)c(N)nc2N)n(CCOCCO)c2cccc(OCC(=O)NC3CCNCC3)c21 [Example 7.01]
